From US6376497B1, “Antifungal azole derivatives having a fluorinated vinyl group and process for preparing same” (Korea Research Institute of Chemical Technology, priority 1999, dated 2002)

Assays:
Assay in all cases: In vitro antifungal activity, microbroth dilution MIC
Assay type in all cases: cell-based
Conditions in all cases: RPMI-1640, 35° C., 4 to 48 hours, no growth observed
[1] = test system: Aspergillus furnigatus B. 19119
In short: (§1)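 Broth microdilution adapted from NCCLS M27, in RPMI-1640 with 0.165 M MOPS, pH 7.0. Yeast or mould inoculum at 2×10^3 CFU/ml was mixed 1:1 with DMSO-derived compound solutions (200 to 0.10 μg/ml before mixing) and incubated at 35 °C for 4 to 48 h. MIC was the concentration showing no growth.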

[2] = test system: Aspergillus niger A. 16404
In short: as §1

[3] = test system: Candida albicans A. 10231
In short: as §1

[4] = test system: Candida albicans C1-2
In short: as §1

[5] = test system: Candida albicans IFO. 1385
In short: as §1

[6] = test system: Candida krusei K. 11655
In short: as §1

[7] = test system: Candida parapsitosis A. 7330
In short: as §1

[8] = test system: Candida pseudotropicalis K. 11658
In short: as §1

[9] = test system: Candida tropicalis A. 13803
In short: as §1

[10] = test system: Cryptococcus neoformans A. 34144
In short: as §1

[11] = test system: Cryptococcus neoformans B. 42419
In short: as §1

[12] = test system: Cryptococcus neoformans IFM. 40092
In short: as §1

[13] = test system: Torulopsis glabrata B. 16205
In short: as §1

[14] = test system: Trichophyton mentagrophytes A. 9129
In short: as §1

[15] = test system: Trichophyton mentagrophytes B. 32663
In short: as §1

Row | SMILES | Minimal inhibitory concentration(MIC), A furnigatus B. 19119 [1] [µg/mL] | Minimal inhibitory concentration(MIC), A. niger A. 16404 [2] [µg/mL] | Minimal inhibitory concentration(MIC), C. albicans A. 10231 [3] [µg/mL] | Minimal inhibitory concentration(MIC), C. albicans C1-2 [4] [µg/mL] | Minimal inhibitory concentration(MIC), C. albicans IFO. 1385 [5] [µg/mL] | Minimal inhibitory concentration(MIC), C. krusei K. 11655 [6] [µg/mL] | Minimal inhibitory concentration(MIC), C. parapsitosis A. 7330 [7] [µg/mL] | Minimal inhibitory concentration(MIC), C. pseudotropicalis K. 11658 [8] [µg/mL] | Minimal inhibitory concentration(MIC), C. tropicalis A. 13803 [9] [µg/mL] | Minimal inhibitory concentration(MIC), Cry. neoformans A. 34144 [10] [µg/mL] | Minimal inhibitory concentration(MIC), Cry. neoformans B. 42419 [11] [µg/mL] | Minimal inhibitory concentration(MIC), Cry. neoformans IFM. 40092 [12] [µg/mL] | Minimal inhibitory concentration(MIC), T. glabrata B. 16205 [13] [µg/mL] | Minimal inhibitory concentration(MIC), T. mentagrophytes A. 9129 [14] [µg/mL] | Minimal inhibitory concentration(MIC), T. mentagrophytes B. 32663 [15] [µg/mL]
1 | FC(Oc1ccc(OCC2COC(Cn3ccnc3)(c3ccc(Cl)cc3Cl)O2)cc1)=C(c1ccc(Oc2ccccc2)cc1)C(F)(F)F (mixture of isomers) [Ex. 100] | >100 | >100 | 50.0 | 100 | 6.25 | >100 | >100 | >100 | >100 | 6.25 | 12.5 | 1.56 | >100 | 100 | 100
2 | FC(Oc1ccc(OCC2COC(Cn3ccnc3)(c3ccc(Cl)cc3Cl)O2)cc1)=C(c1cccc(Cl)c1)C(F)(F)F (mixture of isomers) [Ex. 101] | 50.0 | >100 | 25.0 | 50.0 | 3.13 | >100 | >100 | >100 | >100 | 3.13 | 3.13 | 0.78 | 25.0 | 25.0 | 12.5
3 | FC(Oc1ccc(OCC2COC(Cn3ccnc3)(c3ccc(Cl)cc3Cl)O2)cc1)=C(c1ccc(Cl)cc1)C(F)(F)F (mixture of isomers) [Ex. 102] | 100 | >100 | 100 | 100 | 6.25 | >100 | >100 | >100 | >100 | 12.5 | >100 | 3.13 | 100 | 25.0 | 12.5
4 | FC(Oc1ccc(OCC2COC(Cn3ccnc3)(c3ccc(Cl)cc3Cl)O2)cc1)=C(c1cccc(F)c1)C(F)(F)F (mixture of isomers) [Ex. 103] | 100 | >100 | 50.0 | 50.0 | 3.13 | >100 | >100 | >100 | >100 | 3.13 | 3.13 | 0.78 | 50.0 | 12.5 | 6.25
